Holding throughout (type): cell-based, human
The test system of assay [1] is PANC-1 cells. Briefly: Matrigel cell invasion assay, sham and 14-3-3σ overexpressing PANC-1 clones. The conditions noted are these: 20 hours. The protocol: (§1) Cell invasion was measured as reported previously, with some modification (Rowland-Goldsmith, M. A. et al. 2001. Clin. Cancer Res. 7:2931-2940). Briefly, cells were suspended in 500 μL of serum-free medium (0.1% BSA) and placed onto the upper compartment of Matrigel-coated transwell chambers (8 μm pore sized, BioCoat Matrigel Invasion Chambers, BD Biosciences, San Jose, Calif.). The lower compartment was filled with 750 μL of medium containing serum free media in the absence or presence of the respective growth factors. After 18-20 hours, cells on the upper surface of the filter were carefully removed with a cotton swab and the membranes were fixed in methanol. The cells that had migrated through the membrane to the lower surface of the filter were stained with toluidine blue (Fisher Scientific, Fair Lawn, N.J.) and counted using a light microscope.

In assay [2] the test system is T3M4 cells. Briefly: Matrigel cell invasion assay, shRNA infected T3M4 cells. The settings on record: 18 hours. The protocol: as §1
Assay [3] relates to PANC-1 cells. Description: cisplatinum induced apoptosis, immunoblot of cleaved PARP and cleaved caspase-3, PANC-1 clones. The conditions noted are these: 10 μg/mL cisplatinum; 24 hours. The protocol:
(§2) Sham or 14-3-3σ transfected PANC-1 cells were incubated for 24 hours in complete medium in the absence or presence of 10 μg/mL of cisplatinum. Scrambled or 14-3-3σ specific shRNA infected T3M4 cells were incubated in complete medium for 24 hours that was supplemented with 10 μg/mL cisplatinum for the initial 2 or 6 hours, or the entire 24 hours. Both floating and adherent cells were then collected and lysed in the buffer containing protease inhibitors, subjected to 10% SDS-PAGE, and immunoblotted with specific antibodies against cleaved Poly (ADP-ribose) Polymerase (PARP) and cleaved caspase-3 (Cell Signaling Technology, Danvers, Mass.).
Background: In western blotting, separated proteins are transferred to a membrane and probed.

Assay [4] relates to T3M4 cells. Description: cisplatinum induced apoptosis, immunoblot of cleaved PARP and cleaved caspase-3, shRNA infected T3M4 cells. The settings on record: cisplatinum 10 νg/mL for 2, 6, or 24 hours. The protocol: as §2
For assay [5], the system named is PANC-1 cells. Description: MTT assay, survival of PANC-1 clones with cisplatinum. The conditions noted are these: 10 μg/mL cisplatinum; 48 hours. Here is the method: Sham-transfected PANC-1 cells and 14-3-3σ transfected clones (1×10^4) were plated in 96-well plates (six wells per sample). Cells were allowed to attach and grow for 48 hours in complete medium, and then treated with complete medium in the absence or presence of 10 μg/mL of cisplatinum (Sigma) for 48 hours, followed by the addition of MTT (3-[4,5-dimethylthiazol-2-yl]-2,5-diphenyltetrazolium bromide) (Sigma) at a final concentration 0.55 μg/mL. After an additional 4 hour incubation, absorbance at 570 nm was determined, with a reference of 650 nm, using a Emax precision microplate reader (Molecular devices, Sunnyvale, Calif.), as previously reported (Arnold, N. B. et al. 2004. Cancer Res. 64:3599-3606). It was previously determined that in pancreatic cancer cell lines the MTT assay correlates closely with cell growth as determined by cell counting and by assessing [^3H]thymidine incorporation (Raitano, A. B. and M. Korc. 1990. J. Biol. Chem. 265:10466-10472; Baldwin, R. L. and M. Korc. 1993. Growth Fact. 8:23-34).

The test system of assay [6] is PANC-1 cells. Description: in vitro wound-healing (migration) assay, sham and 14-3-3σ overexpressing PANC-1 clones. The conditions noted are these: EGF 1 nmol/L; serum free media; 24 hours. The protocol:
(§3) To assess the motility properties, in vitro wound-healing assays or migration assays were performed. Cells were grown to confluence in 6-well tissue culture plates, serum starved overnight, and the monolayer was scratched with a 200 μL pipette tip generating two parallel wounds. The scratched wells were washed to remove cell debris and incubated for the next 24 hours in serum free media in the absence or presence 1 nmol/L EGF with or without the Src family kinase inhibitor PP2 (4-amino-5-(4-chlorophenyl)-7-(t-butyl)pyrazolo[3,4-d]pyrimidine) (Alexis, La Jolla, Calif.). To monitor cell migration, photographs were taken of each well at five marked locations under 40× magnification immediately after wounding (t0) and again 24 hours after wounding (t24), using an inverted microscope fitted with a digital camera (Nikon Diaphot 300, Nikon, Japan). The wound area of five matched pictures at t0 and t24 from each well were then measured using the ImageJ software (NIH, Bethedsa, Md.), and the percentage change in the wound area was calculated.

The subject of assay [7] is T3M4 cells. Briefly: in vitro wound-healing (migration) assay, shRNA infected T3M4 cells. The settings on record: EGF 1 nmol/L; 24 hours; control shRNA, sh1 or sh2 infected cells; percentage change in wound area. Here is the method: as §3

We go through 5 compounds from patent US20110152358A1, “Compositions and Methods for Diagnosis and Treatment of Pancreatic Ductal Cancer” (priority 2008, published 2011).

“Also recorded” adds a separate entry of the source.

Turning to “IGF-1: IGF-1 growth factor used as chemoattractant at 1 nmol/L”, the “invasion of PANC-1 clones overexpressing 14-3-3σ compared to sham cells” value in assay [1] (IGF-1 1 nmol/L) is “significantly increased”. Besides, the “IGF-1-mediated invasion in presence of endogenously high levels of 14-3-3σ” value in assay [2] (IGF-1 1 nmol/L, non-silenced T3M4) was “robust”. Also, the “IGF-1 effect on invasion in T3M4 cells in which 14-3-3σ was silenced” value in assay [2] (IGF-1 1 nmol/L, sh1 or sh2 infected) is “markedly attenuated; also recorded: completely suppressed”.

In the case of `C[S+]([O-])c1ccc(-c2nc(-c3ccncc3)c(-c3ccc(F)cc3)[nH]2)cc1` (stereo not drawn) [SB203580, reference compound], in assay [1] (EGF 1 nmol/L, LY 294002 5 μmol/L, SB 203580 10 μmol/L, PP2 10 μmol/L, clone C1), the “effect on EGF-mediated invasion in 14-3-3σ overexpressing clones” value is recorded as “suppressed; also recorded: completely blocked”.

On to `N.N.[Cl][Pt][Cl]` [cisplatinum], for which, in assay [3], the “PARP cleavage in 14-3-3σ overexpressing clones compared with sham transfected cells” value is recorded as “attenuated” and the “generation of cleaved caspase-3 in 14-3-3σ overexpressing clones compared with sham transfected cells” value was “markedly decreased”. Also, in assay [4], the “apoptosis (PARP cleavage, caspase-3 activation) in 14-3-3σ silenced cells compared to non-silenced cells” value is “increased apoptosis”. Further, the “survival of 14-3-3σ overexpressing clones compared with Sham (MTT)” value in assay [5] was “significant (p<0.01) increase”.

“EGF: EGF growth factor, ligand of the EGF receptor, added at 1 nmol/L (NSDSECPLSHDGYCLHDGVCMYIEALDKYACNCVVGYIGERCQYRDLKWWELR; UniProt P01133 971-1023, looked up)”: in assay [6], the “motility of 14-3-3σ overexpressing cells” value is “did not cause an additional increase in motility” and the “motility of sham-transfected cells” value is recorded as “slight but significant increase”. Moreover, the EGF stimulated motility result in assay [7] was “about 50%”. Besides, the “invasion of sham transfected cells” value in assay [1] (EGF 1 nmol/L) was “not statistically significant”. Moreover, the “invasion of 14-3-3σ overexpressing clones” value in assay [1] (EGF 1 nmol/L, clones C1 and C7) is recorded as “markedly enhanced”. For the same compound, the “invasion in 14-3-3σ downregulated cells (sh2 infected) compared to control shRNA infected cells” value in assay [2] (EGF 1 nmol/L) is “marked increase”.

For the compound `COc1cc2ncnc(Nc3cccc(Br)c3)c2cc1OC` [AG 1517, reference compound], the “effect on EGF induced invasion in 14-3-3σ downregulated cells (sh2 infected)” value in assay [2] (EGF 1 nmol/L, AG 1517 1 μmol/L, PP2 10 μmol/L) is “suppressed”.
